| SMILES | melting point |
| --- | --- |
| Cc1c(C(=O)CBr)ccn1S(=O)(=O)c1ccccc1 | 108 to 110 °C |
| C[C@H](NC(=O)CCS)C(=O)O | 64 °C |
| CCCc1c(OCCCOc2ccccc2C(=O)NCCCCc2cccnc2)ccc(C(C)=O)c1O | 104 to 107 °C |
| COc1cc(Cl)cc(CC(O)CO)c1OCc1ccccc1 (stereo unspecified) | 65 to 68 °C |
| CC(=O)SC[C@H](NC(=O)C(C)C)C(=O)NCCSC(=O)C(C)C | 100 to 102 °C |
| Cc1ccc(N2CCN(c3cc4c(ncc5c4c(=O)c(C(=O)O)cn5C)c(F)c3Cl)CC2)cc1F | 360 °C |
| Cc1c(C)c2c(c(C)c1O)CCC(C)(C#Cc1cccc(C(F)(F)F)c1)O2 (stereo unspecified) | 81 to 83 °C |
| CCOC(=O)C(=CNc1cccc(C#N)c1)C(=O)OCC | 109 to 111 °C |
| CC(C)(CO)NC(=O)NCCNCC(O)COc1ccc(O)cc1 (stereo unspecified) | 113 to 130 °C |
| CC(=O)NCC1CN(c2ccc(N3CCC(=CC#N)C(F)C3)c(F)c2)C(=O)O1 (stereo unspecified) | 138 to 140 °C |
| CCCn1nc(-c2ccc(OC(=O)CC(C)(C)C)cc2)c2cccc(Cl)c21 | 71 to 72 °C |
| CCOC(C)=NS(=O)(=O)c1nc(-c2ccccc2)ns1 | 120 to 122 °C |
| O=c1[nH]c(=O)n([C@@H]2O[C@H](CO)[C@@H](O)[C@H]2O)cc1/C(I)=C\I | 107 to 109 °C |
| COc1ccc(-c2cnc(N)c(Sc3cc(C(F)(F)F)cc(C(F)(F)F)c3)n2)cc1 | 136 to 138 °C |
| COc1cc(CC(=O)Nc2ccc(I)cc2)ccc1NC(=O)Nc1ccccc1C | > 200 °C |
| Cc1cc(-c2cc3nccnc3[nH]2)cn1C | 253 °C |
| COc1ccc(C=C2CS(=O)(=O)CC3=C2N=C2SCCN2C3c2ccc(OC)cc2)cc1 (stereo unspecified) | 235 to 240 °C |
| O=C(O)c1ccc2[nH]cc(-c3cc4cccnc4[nH]3)c2c1 | > 300 °C |
| COc1ccc2cc3c(=O)n(C)cc(C(=O)NCCN(C)C)c3nc2c1Cl | 209 to 212 °C |
| COc1cc(C=C(Br)Br)cc(OC)c1OCc1ccccc1 | 76 to 77 °C |
| CCOC(=O)c1coc2c(OC)ccc(C(=O)Cc3c(Cl)cncc3Cl)c12 | 142 to 143 °C |
| COCc1oc(C)cc(=O)c1OCc1ccccc1 | 30 to 32 °C |
| O=c1c(Br)c(SCc2ccccc2)ccn1Cc1ccccc1 | 181 to 182 °C |
| COc1ccccc1Nc1nnc(Cc2ccncc2)c2ccccc12 | 190 to 191 °C |

| SMILES | melting point |
| --- | --- |
| CN(Cc1ccc(NC(=O)C2=Cc3cc(-c4ccc5c(c4)CCCO5)ccc3S(=O)(=O)CC2)cc1)C1CCOCC1 | 245 to 249 °C |
| C/C(=C\CC1OC(=O)NC1=O)c1cccc(OCc2nc(-c3ccc(OC(F)(F)F)cc3)oc2C)c1 (stereo unspecified) | 105 to 106 °C |
| Cc1cc2cc(C3(O)CCN(C)CC3)ccc2o1 | 118 to 120 °C |
| OCc1cc2cc(-c3ccc(OC(F)(F)F)cc3)ccc2n1Cc1ccccc1 | 108 to 109 °C |
| C=CCC1C=C(c2c[nH]c(-c3ccc(F)cc3)c2-c2ccncc2)CCN1C (stereo unspecified) | 218 to 220 °C |
| Nc1ccn([C@@]2(O)CC=C(P(=O)(O)O)O[C@@H]2CO)c(=O)n1 | 290 °C |
| CCCCCC#CCC(CC#CCCCCC)(C(=O)O)S(=O)(=O)c1ccc(OC)cc1 | 61 °C |
| COc1cc(N)c(Cl)cc1C(=O)N[C@H]1CCN(Cc2cccnc2)C[C@H]1OC (relative stereo) | 189 °C |
| COc1ccc(Oc2c(C)cc(O)cc2C)cc1C(C)C | 60 to 64 °C |
| CC(C=CC1=C(C)C(=O)CC1(C)C)=CC=O | 91 to 93 °C |
| CCCNC1=NS(=O)(=O)c2cc(Cl)sc2N1 | 246 to 247 °C |
| Cc1cc(C)cc(-c2cn(C(C)C)c3ccccc23)c1 | 60 to 62 °C |
| C#CCNC(=O)c1c(Br)cccc1[Si](C)(C)C | 120 to 121 °C |
| ClCc1nc(Cl)c2sccc2n1 | 101 to 102 °C |
| Cc1oc(-c2ccccc2)nc1CCOc1ccc(/C=C/C#N)cn1 | 116 to 117 °C |
| CS(=O)c1ccc(-n2[nH]c3ccccc3c2=O)cc1 (stereo unspecified) | 208 to 210 °C |
| COc1ccc(-c2[nH]nc3c2C(=O)c2c(NC(=O)Cc4cc(OC)ccc4OC)cccc2-3)cc1 | 226 °C |
| COc1cc(C=C2SC(=O)NC2=O)cc(OC)c1O | 248 to 249 °C |
| Cc1c2n(c3ccccc13)CC(C)(C)C2O (stereo unspecified) | 82 to 85 °C |
| O=C1c2ccccc2CN1C1CCN(c2ccc(C(OCc3ccncc3)c3ccccc3)cc2)CC1 (stereo unspecified) | 77 to 81 °C |
| Cn1cncc1-c1c(C(CC#N)c2ccc(Cl)cc2)ccc2c1c(-c1cccc(Cl)c1)cc(=O)n2C (stereo unspecified) | 151 °C |
| COc1cc2ncc(C#N)c(Nc3ccc(Cl)cc3F)c2cc1OC | 139 to 141 °C |
| CC(=O)OCC1OC(n2cc(C(Br)=CI)c(=O)[nH]c2=O)CC1OC(C)=O (stereo unspecified) | 82 to 84 °C |
| COc1ccc2cc(C(=O)CNC(=O)c3ccccc3)ccc2c1 | 172 to 174 °C |

| SMILES | melting point |
| --- | --- |
| Cc1cc(-c2ccccc2)nc(-c2cccc([N+](=O)[O-])c2)c1C(=O)N1CCN(C)CC1 | 127 to 129 °C |
| O=C(O)C(=O)c1ccc(OCCOc2ccc3ccccc3c2)s1 | 152 to 154 °C |
| CCCCC[C@H]1CC[C@H](c2ccc(-c3ccc(CO)cc3)cc2)CC1 | 180 °C |
| CC(=O)c1c(-c2ccc(O)cc2)oc2ccc(O)cc12 | 243 to 251 °C |
| CNc1cc(N2CCN(C(=O)N3CCN(S(=O)(=O)c4ccc(C(F)(F)F)cc4)CC3)CC2)ncn1 | 230 to 231 °C |
| CC(C)(CO)NS(=O)(=O)c1cc(NC(=O)c2cnn3c(C(F)(F)F)cc(-c4ccc(C(F)(F)F)c(OCC(F)(F)F)c4)nc23)c(Cl)s1 | 264 °C |
| O=C1c2c(Cl)cccc2-n2cnc(-c3nc(C4CC4)no3)c2[C@@H]2CCN12 | 140 to 142 °C |
| COc1cc2c(cc1OC)C(C(S)(C#N)c1ccc(Cl)cc1)=NCC2 (stereo unspecified) | 135 to 136 °C |
| CC(C=O)=CC=CC(C)=CC=CC=C(C)C1OCC(C)(C)CO1 | 140 °C |
| CN(C)c1ccc(/C=C/c2ccccc2F)c2ccccc12 | 56 to 58 °C |
| COc1ccc2cccc(C(O)CNC(C)=O)c2c1 (stereo unspecified) | 173 to 175 °C |
| CCCCOc1ccc(-c2ncc(C(=O)OCC)c(Cl)n2)cc1 | 79 °C |
| CCOC(=O)c1ccc(NCC(C)Oc2cccc3ccccc23)cc1 (stereo unspecified) | 110 to 112 °C |
| CCCN(Cc1ccc(NCCN(CC)CC)c2c(=O)c3ccccc3sc12)S(C)(=O)=O | 142 to 143 °C |
| COc1ccc(-c2c[nH]c(=S)n2O)cc1 | 150 °C |
| Cc1nc(=O)[nH]c2cc(Cl)c(NC(N)=O)cc12 | > 310 °C |
| O=c1[nH]cccc1CCCCCCCCCCCCc1ccc[nH]c1=O | 210 °C |
| O=P(O)(O)Oc1cccc(-c2nc3sccn3c2-c2cccc(N[C@@H]3CCCN(S(=O)(=O)c4ccc(Cl)cc4)C3)c2)c1 | 239 to 245 °C |
| CCCc1nc(C)n2cnnc2c1Cc1ccc(-c2ccccc2C#N)cc1 | 153 °C |
| OP(O)C(NC(c1ccccc1)c1ccccc1)c1ccco1 (stereo unspecified) | 193 °C |
| Cc1cc(=O)n2c3c(cc(C(O)(C(F)(F)F)C(F)(F)Cl)cc13)CC2 (stereo unspecified) | 160 to 164 °C |
| COC(=O)C1=C(C)Nc2ccnn2C1c1ccccc1C(F)(F)F (stereo unspecified) | 209 to 210 °C |
| CCOC(=O)c1cn(CC)c2nc(N3CCN(C)CC3)ncc2c1=O | 146 to 147 °C |

Reference: a melting point compilation (Tetko et al.; mined from patent text by program, amines drawn as free bases though some values may be those of a salt)
